Like-named read-outs stand apart in the source and are kept apart here.
Columns and labels:
[1] = system: E. coli S30 extract (bacterial protein synthesis); assay: E. coli S30 extract coupled transcription-translation luciferase assay (inhibition of bacterial protein synthesis); format: biochemical; conditions: read-out: S30 IC50 (μM/% inhib.)
Method in brief: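 Coupled transcription-translation in E. coli S30 circular-DNA extract expressing luciferase from pBESTluc, with 8-point 2-fold compound dilutions; 1 hour at 37 °C, stopped at 4 °C. Luminescence read; % inhibition versus no-inhibitor wells, no-DNA wells as background.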

[2] = molecular target: Rabbit Reticulocyte Lysate (eukaryotic protein synthesis); assay: Rabbit reticulocyte lysate luciferase assay (inhibition of eukaryotic protein synthesis); format: biochemical; conditions: read-out: Rabbit reticulocyte IC50 (μM/% inhib.)
Method in brief: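 In vitro translation of luciferase control RNA in nuclease-treated rabbit reticulocyte lysate with amino acid mixture, compounds in 2-fold serial dilution, 90 minutes at 30° C. Luminescence read after luciferase reagent; % inhibition relative to water no-inhibitor controls, with no-RNA background wells.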

[3] = system: A. baumannn (Ab); assay: Broth microdilution minimum inhibitory concentration (MIC), CLSI; format: cell-based; conditions: read-out: Ab + bicarb MIC
Method in brief: (§1)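 Two-fold serial dilutions in CAMHB, optionally with sodium bicarbonate (6.25 or 25 mM final) or heat-inactivated human serum (0-50%), 8 concentrations, triplicate. Inoculum 5×10^4 CFU/well from log-phase cultures grown at 35±2 °C to 0.5 McFarland.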

[4] = system: E. coli (Ec); assay: as above; format: cell-based; conditions: Escherichia coli, read-out: E. coli + bicarb MIC
Method in brief: as §1

[5] = system: E. faecalis (Ef); assay: as above; format: cell-based; conditions: Enterococcus faecalis, read-out: Ef + bicarb MIC
Method in brief: as §1

[6] = system: P. aeruginosa (Pa); assay: as above; format: cell-based; conditions: Pseudomonas aeruginosa, read-out: Pa MIC + bicarb
Method in brief: as §1

[7] = system: S. aureus (Sa); assay: as above; format: cell-based; conditions: Staphylococcus aureus, read-out: Sa + bicarb MIC
Method in brief: as §1

[8] = class by IC50 or % inhibition @ 1 μM
[9] = growth medium supplemented with sodium bicarbonate
[10] = A. baumannn, growth medium with sodium bicarbonate
[11] = growth medium with sodium bicarbonate

Structure (SMILES)	IC50 [1, 8] [µM]	IC50 [2, 8] [µM]	MIC ([3]; Acinetobacter baumannii) [µg/mL]	MIC [4, 9] [µg/mL]	MIC [5, 9] [µg/mL]	MIC [6, 9] [µg/mL]	MIC [7, 9] [µg/mL]	IC50 ([1]; % inhibition @ 1 μM) [µM]	IC50 ([2]; % inhibition @ 1 μM) [µM]	MIC [3, 10] [µg/mL]	MIC [4, 11] [µg/mL]	MIC [5, 11] [µg/mL]	MIC [6, 11] [µg/mL]	MIC [7, 11] [µg/mL]
NC[C@@H]1[C@H]2CN(CCc3ccc(-n4ccc(NC(=O)N5CCC6(CC5)CC(N)C6)nc4=O)cc3)C[C@@H]12 [Compound 146]	≥ 1	≥ 1	8 to 32	< 8	< 8	8 to 32	< 8	–	–	–	–	–	–	–
CC(C)(N)C(=O)N1CCN(C(=O)Nc2ccn(-c3ccc(CNC45CCC(N)(CC4)CC5)cc3)c(=O)n2)CC1 [Compound 167]	–	–	–	–	–	–	–	< 0.5	≥ 1	8 to 32	< 8	< 8	8 to 32	< 8
CN(Cc1ccc(-n2ccc(NC(=O)N3CCN(C(=O)C(C)(C)N)CC3)nc2=O)cc1)C12CCC(N)(CC1)CC2 [Compound 165]	–	–	–	–	–	–	–	0.5 to 1	≥ 1	8 to 32	< 8	< 8	> 32	< 8
CC(C)(N)C(=O)N1CCN(C(=O)Nc2ccn(-c3ccc(CCN4CCC5CC5(N)C4)c(C(F)(F)F)c3)c(=O)n2)CC1 (centres unmarked) [Compound 103]	0.5 to 1	≥ 1	> 32	8 to 32	8 to 32	> 32	8 to 32	–	–	–	–	–	–	–
CC(C)(N)C(=O)N1CCN(C(=O)Nc2ccn(-c3ccc(CN4C[C@@H]5[C@H](N)[C@@H]5C4)cc3)c(=O)n2)CC1 [Compound 14]	< 0.5	≥ 1	> 32	< 8	< 8	> 32	< 8	–	–	–	–	–	–	–
CC(C)(N)C(=O)N1CCN(C(=O)Nc2ccn(-c3ccc(CCCN4C[C@@H]5[C@@H](N)[C@@H]5C4)cc3)c(=O)n2)CC1 [Compound 179]	–	–	–	–	–	–	–	≥ 1	≥ 1	> 32	8 to 32	> 32	> 32	< 8
CC(CN1C[C@@H]2[C@@H](CN)[C@@H]2C1)Oc1ccc(-n2ccc(NC(=O)N3CCN(C(=O)C(C)(C)N)CC3)nc2=O)cc1 (some centres unmarked) [Compound 186]	–	–	–	–	–	–	–	< 0.5	≥ 1	8 to 32	< 8	< 8	> 32	< 8
NCCC1CN(C(=O)Nc2ccn(-c3ccc(CN4C[C@@H]5[C@@H](N)[C@@H]5C4)cc3)c(=O)n2)C1 [Compound 255]	–	–	–	–	–	–	–	0.5 to 1	≥ 1	> 32	8 to 32	> 32	> 32	> 32
CC(Cc1ccc(-n2ccc(NC(=O)N3CCN(C(=O)C(C)(C)N)CC3)nc2=O)cc1)N1C[C@@H]2[C@H](C1)[C@H]2C(N)=O (some centres unmarked) [Compound 136]	≥ 1	≥ 1	> 32	> 32	> 32	> 32	> 32	–	–	–	–	–	–	–
CC(c1ccc(-n2ccc(NC(=O)N3CCN(C(=O)C(C)(C)N)CC3)nc2=O)cc1)N1C[C@@H]2[C@@H](N)[C@@H]2C1 (some centres unmarked) [Compound 67]	< 0.5	≥ 1	> 32	< 8	< 8	> 32	< 8	–	–	–	–	–	–	–
CC(=O)NC[C@@H]1[C@H]2CN(C(C)Cc3ccc(-n4ccc(NC(=O)N5CCN(C(=O)C(C)(C)N)CC5)nc4=O)cc3)C[C@@H]12 (some centres unmarked) [Compound 212]	–	–	–	–	–	–	–	≥ 1	≥ 1	> 32	> 32	> 32	> 32	> 32
CC(C)(N)C(=O)N1CCN(C(=O)Nc2ccn(-c3cccc(CCN4C[C@@H]5[C@@H](CN)[C@@H]5C4)c3)c(=O)n2)CC1 [Compound 143]	0.5 to 1	≥ 1	> 32	< 8	8 to 32	> 32	8 to 32	–	–	–	–	–	–	–
CC(C)(N)C(=O)N1CCN(C(=O)Nc2ccn(-c3ccc(CN4C[C@@H]5[C@@H](N)[C@@H]5C4)cc3)c(=O)n2)CC1 [Compound 3]	< 0.5	≥ 1	< 8	< 8	< 8	8 to 32	< 8	–	–	–	–	–	–	–
CC(Cc1ccc(-n2ccc(NC(=O)N3CCN(C(=O)C4(N)CC4)CC3)nc2=O)cc1)N1C[C@@H]2[C@@H](CN)[C@@H]2C1 (some centres unmarked) [Compound 226]	–	–	–	–	–	–	–	≥ 1	≥ 1	> 32	> 32	> 32	> 32	> 32
CC[C@@H](N)C1[C@H]2CN(CCc3ccc(-n4ccc(NC(=O)N5CCN(C(=O)C(C)(C)N)CC5)nc4=O)cc3)C[C@@H]12 (some centres unmarked) [Compound 152]	≥ 1	≥ 1	> 32	8 to 32	> 32	> 32	> 32	–	–	–	–	–	–	–
NC[C@H]1CCN(C(=O)Nc2ccn(-c3ccc(CN4C[C@@H]5[C@@H](N)[C@@H]5C4)cc3)c(=O)n2)C1 [Compound 253]	–	–	–	–	–	–	–	≥ 1	≥ 1	> 32	> 32	> 32	> 32	> 32
CC(Cc1ccc(-n2ccc(NC(=O)N3CCN(C(=O)C(C)(C)N)CC3)nc2=O)cc1F)NC1CC2(CC(N)C2)C1 (centres unmarked) [Compound 192]	–	–	–	–	–	–	–	≥ 1	≥ 1	> 32	< 8	< 8	> 32	< 8
N[C@@H]1[C@H]2CN(Cc3ccc(-n4ccc(NC(=O)N5CCC6(CC5)CNC6)nc4=O)cc3)C[C@@H]12 [Compound 61]	≥ 1	≥ 1	> 32	8 to 32	> 32	> 32	> 32	–	–	–	–	–	–	–
CC(COc1ccc(-n2ccc(NC(=O)N3CCN(C(=O)C(C)(C)N)CC3)nc2=O)cc1)N1CC2(CC(N)C2)C1 (centres unmarked) [Compound 181]	–	–	–	–	–	–	–	0.5 to 1	≥ 1	> 32	< 8	< 8	> 32	< 8
CC(C)(N)C(=O)N1CCN(C(=O)Nc2ccn(-c3ccc(CCN4C[C@@H]5[C@@H](CN)[C@@H]5C4)c(F)c3)c(=O)n2)CC1 [Compound 127]	< 0.5	≥ 1	> 32	< 8	8 to 32	8 to 32	8 to 32	–	–	–	–	–	–	–
CC(C)(N)C(=O)N1CCN(C(=O)Nc2ccn(-c3ccc(CCN4CCC5(CC4)CC5N)cc3)c(=O)n2)CC1 (centres unmarked) [Compound 94]	< 0.5	≥ 1	> 32	< 8	8 to 32	8 to 32	< 8	–	–	–	–	–	–	–
CC(Cc1ccc(-n2ccc(NC(=O)N3CCN(C(=O)C(C)(C)NCS(=O)(=O)O)CC3)nc2=O)cc1)N1C[C@@H]2[C@@H](CNCS(=O)(=O)O)[C@@H]2C1 (some centres unmarked) [Compound 241]	–	–	–	–	–	–	–	< 0.5	≥ 1	> 32	< 8	8 to 32	> 32	< 8
CC(Cc1ccc(-n2ccc(NC(=O)N3CCN(C(=O)C(C)(C)N)CC3)nc2=O)cc1)N(CC(F)(F)F)C1CC2(CC(N)C2)C1 (centres unmarked) [Compound 195]	–	–	–	–	–	–	–	≥ 1	≥ 1	> 32	> 32	> 32	> 32	8 to 32
CC(C)(N)C(=O)N1CCN(C(=O)Nc2ccn(-c3ccc(CN4CC5(CC(N)C5)C4)cc3)c(=O)n2)CC1 [Compound 34]	< 0.5	≥ 1	> 32	< 8	8 to 32	> 32	< 8	–	–	–	–	–	–	–
CC(Cc1ccc(-n2ccc(NC(=O)N3CCN(C(=O)C(C)(C)N)CC3)nc2=O)cc1)N1C[C@@H]2[C@@H](CN)[C@@H]2[C@H]1CO (some centres unmarked) [Compound 157]	< 0.5	≥ 1	> 32	< 8	8 to 32	> 32	< 8	–	–	–	–	–	–	–
CC(C)(N)C(=O)N1CCN(C(=O)Nc2ccn(-c3ccc(CCN4C[C@@H]5[C@@H](CN)[C@@H]5C4)cc3)c(=O)n2)CC1 [Compound 116]	< 0.5	≥ 1	< 8	< 8	8 to 32	8 to 32	< 8	–	–	–	–	–	–	–

From patent publication US12692253B2, “Antimicrobial compounds and methods” (Curza Global, LLC, priority 2019, dated 2026)
